This is an account of results in PubChem BioAssay (NCI).

Structures are written as SMILES.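 The compound was tested at five concentrations on cells cultured in 96-well plates, with a 48-hour exposure period. At the GI50, growth is halved. TGI marks complete inhibition of growth.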

Among the test systems are COLO 205 colon; EKVX NSCLC; HOP-62 NSCLC; IGROV1 ovarian; KM12 colon; NCI-H226 lung; OVCAR-4 ovarian; SNB-19 CNS; UACC-257 melanoma; UACC-62 melanoma.
Common to all, as to test: NCI-60 cell line screen, 48 h

Regarding `O=S(=O)(NC1=NCCN1C(=S)SN1CCn2c1nsc2=S)c1cccc(Cl)c1`, the GI50 with COLO 205 colon is 7.48 µM; in the experiment with EKVX NSCLC, 38.7 µM; in the experiment with HOP-62 NSCLC, 18.5 µM; with IGROV1 ovarian, 12.4 µM; in the experiment with KM12 colon, 16.6 µM; with NCI-H226 lung it was 19 µM. Also, the GI50 is 22.2 µM in the experiment on OVCAR-4 ovarian, 19.1 µM in the experiment with SNB-19 CNS, 18.6 µM with UACC-257 melanoma and 15.4 µM in the experiment on UACC-62 melanoma. In addition, the TGI with COLO 205 colon was 20.7 µM; with EKVX NSCLC, more than 100 µM; with HOP-62 NSCLC it was 37.6 µM; in the experiment with IGROV1 ovarian, 36.8 µM; in the experiment with KM12 colon, 34.1 µM; in the experiment with NCI-H226 lung it was 55.7 µM. The TGI turned out to be 54.6 µM with OVCAR-4 ovarian, 44.4 µM in the experiment with SNB-19 CNS, 39.5 µM with UACC-257 melanoma and 34.3 µM with UACC-62 melanoma.

Regarding `NC1=NC(c2ccccc2)CC(c2cc(Cl)ccc2O)=N1` (stereo not given), the TGI was found to be 33.7 µM in the experiment on COLO 205 colon; 29.5 µM with EKVX NSCLC; 30.2 µM in the experiment on HOP-62 NSCLC; 42.1 µM in the experiment on IGROV1 ovarian; 26.9 µM with KM12 colon; 37.8 µM with NCI-H226 lung. Also, the TGI stood at 35.8 µM in the experiment with OVCAR-4 ovarian, 30.7 µM in the experiment with SNB-19 CNS, 35.7 µM in the experiment on UACC-257 melanoma and 30.4 µM in the experiment on UACC-62 melanoma.

On to `CCOC(=O)/C(=C\c1ccccc1)C(=O)O`, for which the TGI in the experiment with COLO 205 colon, in the experiment on EKVX NSCLC, in the experiment on HOP-62 NSCLC, in the experiment with IGROV1 ovarian, with KM12 colon and in the experiment on NCI-H226 lung was more than 100 µM in each case. For the same compound, the TGI in the experiment with OVCAR-4 ovarian, in the experiment on SNB-19 CNS, in the experiment on UACC-257 melanoma and in the experiment with UACC-62 melanoma was more than 100 µM in each case.

For `O=[N+]([O-])c1ccc(C=NC2CCCCC2)cc1`, the TGI in the experiment with COLO 205 colon, in the experiment with EKVX NSCLC, in the experiment on HOP-62 NSCLC, in the experiment with IGROV1 ovarian, in the experiment with KM12 colon and with NCI-H226 lung was more than 100 µM in each case. The TGI in the experiment with OVCAR-4 ovarian, in the experiment on SNB-19 CNS, with UACC-257 melanoma and in the experiment with UACC-62 melanoma was more than 100 µM each time.

For the compound `CCCCCCCC(=O)OCC/C=C/C1OC1C1OC(=O)/C=C\C=C\c2nc(oc2C)/C=C(/C)CCC2OC2C1OC(=O)NC(C)=O` (stereo not given), the GI50 in the experiment with COLO 205 colon is 0.0581 µM; in the experiment with EKVX NSCLC, 0.0419 µM; in the experiment with HOP-62 NSCLC, 0.0686 µM; with IGROV1 ovarian it was 0.0262 µM; in the experiment with KM12 colon, 0.0271 µM; in the experiment with NCI-H226 lung it was 0.0426 µM. The GI50 in the experiment on OVCAR-4 ovarian was 0.0766 µM; with SNB-19 CNS it was 0.0605 µM; in the experiment with UACC-257 melanoma, 0.0301 µM; in the experiment with UACC-62 melanoma, 0.0316 µM. For the same compound, the TGI in the experiment on COLO 205 colon is 0.193 µM; with EKVX NSCLC it was 1.64 µM; with HOP-62 NSCLC, 0.381 µM; with IGROV1 ovarian, 0.918 µM; with KM12 colon, 0.119 µM; in the experiment on NCI-H226 lung, 0.161 µM. The TGI in the experiment on OVCAR-4 ovarian is 2.21 µM; in the experiment with SNB-19 CNS it was 1.16 µM; in the experiment on UACC-257 melanoma, 0.125 µM; with UACC-62 melanoma, 0.0808 µM.
